Data on one molecule can be found in patent EP1658050B1, “SELF-NANOEMULSIFYING OILY FORMULATION FOR THE ADMINISTRATION OF POORLY WATER-SOLUBLE DRUGS” (Novagali Pharma S.A., priority 2003, dated 2005).

Data set [1] is described as follows: Pharmacokinetic study of oral paclitaxel emulsions after cyclosporin A oral pretreatment (paclitaxel plasma levels by HPLC-UV). Format: in vivo, FVB Wild-type mice. Conditions: intravenous 10 mg/kg paclitaxel; with versus without 10 mg/kg oral CsA; wild-type mice.
Description: Strains: FVB Wild-type mice Source: Breeding stocks of the animal facility of the Netherlands Kancer Institute (NKI) Age: 8-14 weeks Body weight: 18-30 gram Gender: Female Housing: Animal Department of the NKI
Cyclosporin A (Sandimmun®) was diluted 1:25 in water for injection to yield a final concentration of 2 mg/mL. A volume of 5 µL per gram body weight was administered to the animals resulting in a dose of 10 mg/kg of cyclosporin A.
Each cohort through 1 to 3 consisted of 20 Wild-type mice and cohorts.
Cohorts 4 and 5 are reference groups for the calculation of the bioavailability and consisted of 24 animals per cohort.
Oral drug administrations was done by stainless steel gavage using a glass syringe (250 µl: Hamilton luer tip) or a disposable polypropylene syringe (1 ml). The gavage was inserted via the oesophagus into the stomach.
Intravenous drug administrations were done by injection into the tail vein using a disposable polypropylene syringe (300 µl) provided with fixed 29 g needle. […]
Plasma concentration data were reported. Plasma concentrations versus time curves were fitted using the MEDI\WARE software package (version 3.0) and pharmacokinetic parameters: Area under the plasma concentration-time curve (AUC), Maximum plasma level (Cmax), Elimination half-life (t1/2) and Biological availability (F) were calculated.
For data set [2] the following is noted: humans; after oral paclitaxel administration; cited from earlier work.

As for `CC(=O)O[C@H]1C(=O)[C@@]2(C)[C@H]([C@H](OC(=O)c3ccccc3)[C@]3(O)C[C@H](OC(=O)[C@H](O)[C@@H](NC(=O)c4ccccc4)c4ccccc4)C(C)=C1C3(C)C)[C@]1(OC(C)=O)CO[C@@H]1C[C@@H]2O` [paclitaxel, Paclitaxel], the “increase of intravenously administered paclitaxel AUC by oral pre-treatment with cyclosporin A” value in data set [1] amounted to 2.35 fold. Also, the systemic bioavailability entry in data set [2] is “less than 6%”.
